According to patent US20230131402A1, “SPIRO-LACTAM NMDA RECEPTOR MODULATORS AND USES THEREOF” (Aptinyx Inc., priority 2016, published 2023):

Experiments:
[1] = molecular target: T1, NMDAR2A (Homo sapiens, UniProt Q12879); assay: [3H]MK-801 binding, NMDAR2A expressing HEK cell membranes; type: biochemical; conditions: 50 μM glutamate; for EC50: read-out: NMDAR2A B: log EC50 (converted); for Emax: read-out: NMDAR2A A: % maximal [3H]MK-801 binding relative to 1 mM glycine
T1 construct: expressed in transfected cells; host or cells: HEK cells (membrane extract)
T1 sequence (Q12879 23-1464, species assumed, other chains not shown): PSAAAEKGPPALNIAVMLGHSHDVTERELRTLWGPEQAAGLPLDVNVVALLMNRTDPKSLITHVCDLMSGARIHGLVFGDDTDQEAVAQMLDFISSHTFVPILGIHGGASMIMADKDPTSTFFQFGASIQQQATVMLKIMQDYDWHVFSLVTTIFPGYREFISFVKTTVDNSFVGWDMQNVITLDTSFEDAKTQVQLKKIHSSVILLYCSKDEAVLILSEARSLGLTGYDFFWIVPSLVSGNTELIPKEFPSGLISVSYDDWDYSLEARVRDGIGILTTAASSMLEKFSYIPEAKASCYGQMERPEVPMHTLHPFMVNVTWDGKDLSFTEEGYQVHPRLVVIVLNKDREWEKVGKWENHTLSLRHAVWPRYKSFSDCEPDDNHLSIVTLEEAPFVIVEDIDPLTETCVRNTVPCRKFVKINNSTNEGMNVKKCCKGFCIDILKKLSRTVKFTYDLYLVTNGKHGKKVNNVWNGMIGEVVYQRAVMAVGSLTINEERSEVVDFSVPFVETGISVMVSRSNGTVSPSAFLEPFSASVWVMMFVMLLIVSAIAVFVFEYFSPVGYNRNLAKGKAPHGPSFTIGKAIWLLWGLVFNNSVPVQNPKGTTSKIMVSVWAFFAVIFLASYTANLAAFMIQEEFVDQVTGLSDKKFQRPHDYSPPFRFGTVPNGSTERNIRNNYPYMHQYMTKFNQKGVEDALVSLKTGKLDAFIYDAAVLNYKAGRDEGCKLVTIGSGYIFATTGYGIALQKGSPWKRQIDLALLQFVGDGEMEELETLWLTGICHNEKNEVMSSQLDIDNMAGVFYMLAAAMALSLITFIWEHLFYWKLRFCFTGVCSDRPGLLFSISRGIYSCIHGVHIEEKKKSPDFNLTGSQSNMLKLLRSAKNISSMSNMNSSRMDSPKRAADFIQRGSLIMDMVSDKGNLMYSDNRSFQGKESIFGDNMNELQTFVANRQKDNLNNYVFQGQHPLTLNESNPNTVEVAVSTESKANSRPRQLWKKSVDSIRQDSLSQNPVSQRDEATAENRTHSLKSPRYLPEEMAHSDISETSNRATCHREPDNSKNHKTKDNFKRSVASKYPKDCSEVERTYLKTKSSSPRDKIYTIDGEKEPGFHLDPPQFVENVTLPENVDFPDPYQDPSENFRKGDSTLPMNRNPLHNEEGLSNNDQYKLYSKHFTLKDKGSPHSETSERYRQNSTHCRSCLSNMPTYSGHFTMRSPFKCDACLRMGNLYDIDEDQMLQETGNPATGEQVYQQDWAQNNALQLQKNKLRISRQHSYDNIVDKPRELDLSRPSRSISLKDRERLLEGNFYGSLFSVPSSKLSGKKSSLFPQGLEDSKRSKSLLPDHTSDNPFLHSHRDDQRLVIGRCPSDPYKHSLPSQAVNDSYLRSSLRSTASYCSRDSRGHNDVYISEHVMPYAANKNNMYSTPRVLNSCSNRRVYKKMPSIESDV
Method: (§1) Assays were conducted as described by Moskal et al., “GLYX-13: a monoclonal antibody-derived peptide that acts as an N-methyl-D-aspartate receptor modulator,” Neuropharmacology, 49, 1077-87, 2005. These studies were designed to determine if the test compounds act to facilitate NMDAR activation in NMDAR2A, NMDAR2B, NMDAR2C or NMDAR2D expressing HEK cell membranes as measured by increases in [^3H]MK-801 binding.
(§2) In the assay, 300 μg of NMDAR expressing HEK cell membrane extract protein was preincubated for 15 minutes at 25° C. in the presence of saturating concentrations of glutamate (50 μM) and varying concentrations of test compound (1×10^−15M−1×10^−7M), or 1 mM glycine. Following the addition of 0.3 μCi of [^3H]MK-801 (22.5 Ci/mmol), reactions were again incubated for 15 minutes at 25° C. (nonequilibrium conditions). Bound and free [^3H]MK-801 were separated via rapid filtration using a Brandel apparatus.
(§3) In analyzing the data, the DPM (disintegrations per minute) of [^3H]MK-801 remaining on the filter were measured for each concentration of test compound or for 1 mM glycine. The DPM values for each concentration of a ligand (N=2) were averaged. The baseline value was determined from the best fit curve of the DPM values modeled using the GraphPad program and the log(agonist) vs. response(three parameters) algorithm was then subtracted from all points in the dataset. The % maximal [^3H]MK-801 binding was then calculated relative to that of 1 mM glycine: all baseline subtracted DPM values were divided by the average value for 1 mM glycine. The EC50 and % maximal activity were then obtained from the best fit curve of the % maximal [^3H]MK-801 binding data modelled using the GraphPad program and the log(agonist) vs. response(three parameters) algorithm.
(§4) The tables below summarize the results for the wild type NMDAR agonists NMDAR2A, NMDAR2B, NMDAR2C, and NMDAR2D, and whether the compound is not an agonist (−), is an agonist (+), or is a strong agonist (++), where column A is based on the % maximal [^3H]MK-801 binding relative to 1 mM glycine (−=0; <100%=+; and >100%=++); and column B is based on log EC50 values (0=−; ≥1×10^−9M (e.g., −8)=+; and <1×10^−9M (e.g., −10)=++).

[2] = molecular target: T2, NMDAR2B (Homo sapiens, UniProt Q13224); assay: [3H]MK-801 binding, NMDAR2B expressing HEK cell membranes; type: biochemical; conditions: 50 μM glutamate; for EC50: read-out: NMDAR2B B: log EC50 (converted)
T2 construct: expressed in transfected cells; host or cells: HEK cells (membrane extract)
T2 sequence (Q13224 27-1484, species assumed, other chains not shown): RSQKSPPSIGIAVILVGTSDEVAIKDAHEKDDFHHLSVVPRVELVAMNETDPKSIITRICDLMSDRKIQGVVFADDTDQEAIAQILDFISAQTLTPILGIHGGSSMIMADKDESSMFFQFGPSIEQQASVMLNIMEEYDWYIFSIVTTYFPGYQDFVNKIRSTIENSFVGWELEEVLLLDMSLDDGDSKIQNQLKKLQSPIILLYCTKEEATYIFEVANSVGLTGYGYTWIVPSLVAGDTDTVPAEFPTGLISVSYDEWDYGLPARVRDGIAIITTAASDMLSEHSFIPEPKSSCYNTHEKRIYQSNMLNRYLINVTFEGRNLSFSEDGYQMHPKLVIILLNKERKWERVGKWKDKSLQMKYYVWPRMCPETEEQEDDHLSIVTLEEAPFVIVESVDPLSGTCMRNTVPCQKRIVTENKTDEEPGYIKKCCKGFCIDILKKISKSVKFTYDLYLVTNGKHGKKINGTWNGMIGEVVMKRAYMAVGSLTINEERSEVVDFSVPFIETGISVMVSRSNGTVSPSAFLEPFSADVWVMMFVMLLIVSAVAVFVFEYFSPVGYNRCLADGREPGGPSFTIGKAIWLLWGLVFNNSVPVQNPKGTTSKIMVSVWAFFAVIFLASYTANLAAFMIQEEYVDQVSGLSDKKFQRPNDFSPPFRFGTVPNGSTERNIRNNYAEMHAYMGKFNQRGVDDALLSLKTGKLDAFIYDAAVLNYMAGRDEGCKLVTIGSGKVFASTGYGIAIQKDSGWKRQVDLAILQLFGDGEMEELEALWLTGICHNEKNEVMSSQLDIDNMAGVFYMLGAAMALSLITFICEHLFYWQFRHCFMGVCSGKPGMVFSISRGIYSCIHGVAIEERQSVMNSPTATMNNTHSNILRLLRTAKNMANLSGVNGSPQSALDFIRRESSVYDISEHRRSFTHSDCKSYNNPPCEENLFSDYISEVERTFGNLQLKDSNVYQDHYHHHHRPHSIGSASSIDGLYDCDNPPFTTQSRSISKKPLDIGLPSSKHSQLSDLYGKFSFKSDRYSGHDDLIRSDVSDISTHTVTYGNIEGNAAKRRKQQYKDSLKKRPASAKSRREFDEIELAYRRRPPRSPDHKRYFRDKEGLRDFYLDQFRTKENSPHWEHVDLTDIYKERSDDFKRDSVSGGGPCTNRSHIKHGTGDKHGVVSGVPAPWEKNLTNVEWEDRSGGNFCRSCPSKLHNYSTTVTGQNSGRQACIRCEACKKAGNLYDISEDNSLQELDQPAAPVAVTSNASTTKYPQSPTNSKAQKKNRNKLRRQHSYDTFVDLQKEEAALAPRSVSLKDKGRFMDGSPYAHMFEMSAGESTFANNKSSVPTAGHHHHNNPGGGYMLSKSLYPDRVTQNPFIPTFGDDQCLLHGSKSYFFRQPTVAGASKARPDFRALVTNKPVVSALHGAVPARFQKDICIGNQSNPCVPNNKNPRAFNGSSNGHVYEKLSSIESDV
Method: as §1, §2, §3, §4

[3] = molecular target: T3, NMDAR2D (Homo sapiens, UniProt O15399+Q05586); assay: [3H]MK-801 binding, NMDAR2D expressing HEK cell membranes; type: biochemical; conditions: 50 μM glutamate; for Emax: read-out: NMDAR2D A: % maximal [3H]MK-801 binding relative to 1 mM glycine; for EC50: read-out: NMDAR2D B: log EC50 (converted)
T3 construct: expressed in transfected cells; host or cells: HEK cells (membrane extract)
Method: as §1, §2, §3, §4

[4] = molecular target: T4, NMDAR2C (Homo sapiens, UniProt Q14957); assay: [3H]MK-801 binding, NMDAR2C expressing HEK cell membranes; type: biochemical; conditions: 50 μM glutamate; for EC50: read-out: NMDAR2C B: log EC50 (converted)
T4 construct: expressed in transfected cells; host or cells: HEK cells (membrane extract)
T4 sequence (Q14957 20-1233, species assumed, other chains not shown): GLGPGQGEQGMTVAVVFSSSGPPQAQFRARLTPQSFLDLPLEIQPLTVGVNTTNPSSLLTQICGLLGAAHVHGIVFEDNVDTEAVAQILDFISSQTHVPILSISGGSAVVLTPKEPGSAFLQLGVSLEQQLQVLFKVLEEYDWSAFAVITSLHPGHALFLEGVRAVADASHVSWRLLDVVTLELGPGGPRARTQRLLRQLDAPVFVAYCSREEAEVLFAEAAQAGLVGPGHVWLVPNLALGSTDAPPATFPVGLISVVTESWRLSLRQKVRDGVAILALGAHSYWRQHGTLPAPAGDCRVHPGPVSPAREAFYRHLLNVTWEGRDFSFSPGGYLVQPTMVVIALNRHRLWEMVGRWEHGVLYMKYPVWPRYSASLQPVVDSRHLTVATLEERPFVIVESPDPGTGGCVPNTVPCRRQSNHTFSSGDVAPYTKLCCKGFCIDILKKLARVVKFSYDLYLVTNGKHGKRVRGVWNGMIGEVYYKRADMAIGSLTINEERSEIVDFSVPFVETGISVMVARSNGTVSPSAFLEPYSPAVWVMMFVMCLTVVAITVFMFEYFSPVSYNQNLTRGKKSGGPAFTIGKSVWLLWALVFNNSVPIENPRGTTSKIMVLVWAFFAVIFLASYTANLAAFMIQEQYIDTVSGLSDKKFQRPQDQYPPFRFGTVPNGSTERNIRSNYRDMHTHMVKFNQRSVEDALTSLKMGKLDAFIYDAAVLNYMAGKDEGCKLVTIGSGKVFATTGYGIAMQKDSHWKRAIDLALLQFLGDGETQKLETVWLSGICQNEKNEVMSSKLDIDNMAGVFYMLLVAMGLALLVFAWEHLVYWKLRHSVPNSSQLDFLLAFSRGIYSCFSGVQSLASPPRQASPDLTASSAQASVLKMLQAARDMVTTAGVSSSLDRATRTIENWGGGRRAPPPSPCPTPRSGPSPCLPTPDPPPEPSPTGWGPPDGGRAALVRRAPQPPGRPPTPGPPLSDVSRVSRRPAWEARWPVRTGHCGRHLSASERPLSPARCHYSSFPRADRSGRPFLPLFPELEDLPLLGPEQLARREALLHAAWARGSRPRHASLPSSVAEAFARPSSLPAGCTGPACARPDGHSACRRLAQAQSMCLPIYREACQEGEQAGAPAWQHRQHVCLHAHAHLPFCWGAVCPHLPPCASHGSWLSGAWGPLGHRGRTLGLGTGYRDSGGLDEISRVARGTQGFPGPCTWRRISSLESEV
Method: as §1, §2, §3, §4

[5] = molecular target: T5, NMDAR2D (Homo sapiens, UniProt O15399); assay: [3H]MK-801 binding, NMDAR2D expressing HEK cell membranes; type: biochemical; conditions: 50 μM glutamate
T5 construct: expressed in transfected cells; host or cells: HEK cells (membrane extract)
Method: as §1, §2, §3, §4

[6] = IV pharmacokinetics; type: in vivo, Sprague Dawley rats; conditions: Sprague Dawley, rat, in vivo, iv, 2 mg/kg, normal saline (compounds marked * in 1% NMP and 99% normal saline)
From the text: The table below summarizes the results of the IV pharmacokinetics.

[7] = Oral pharmacokinetics (plasma, brain, CSF); conditions: rat, 10 mg/kg, per os
Method: Plasma, brain, and CSF samples were analyzed at various time points over a 24 hour period.

[8] = normal saline (compounds marked * in 1% NMP and 99% normal saline)

SMILES | NMDAR2A A: % maximal [3H]MK-801 binding relative to 1 mM glycine [1] | EC50 [1] | NMDAR2B A: % maximal [3H]MK-801 binding relative to 1 mM glycine [2] | EC50 [2] | Emax [3] | Emax [1] | NMDAR2C A: % maximal [3H]MK-801 binding relative to 1 mM glycine [4] | EC50 [4] | EC50 [3] | also measured
O=C1NCC12CN(Cc1ccccc1)CCN2Cc1ccccc1 (single isomer, unassigned) [EA-1, 5,8-Dibenzyl-2,5,8-Triazaspiro[3.5]Nonan-1-One] | + (<100%=+) | < 1 nM | + (<100%=+) | < 1 nM | 0% |  |  |  |  | 
CC(C)(C)OC(=O)N1CCNC2(CNC2=O)C1 (single isomer, unassigned) [EB-1, Tort-Butyl 1-Oxo-2,5,8-Triazaspiro[3.5]Nonane-8-Carboxylate] |  | < 1 nM | − (−=0) |  | < 100% | < 100% | + (<100%=+) | > 1 nM | < 1 nM | 
CC(C)(C)OC(=O)N1CCNC2(CNC2=O)C1 (single isomer, unassigned) [EB-2, Tort-Butyl 1-Oxo-2,5,8-Triazaspiro[3.5]Nonane-8-Carboxylate] | + (<100%=+) | < 1 nM | + (<100%=+) | > 1 nM |  |  | + (<100%=+) | < 1 nM |  | NMDAR2D A: % maximal [3H]MK-801 binding relative to 1 mM glycine [5]: + (<100%=+); EC50 ([5]; read-out: NMDAR2D B: log EC50 (converted)): < 1 nM
C[C@@H](O)[C@H](N)C(=O)N1CCN(C(=O)OC(C)(C)C)CC12CNC2=O (single isomer, unassigned) [EC-1, Tert-Butyl 5-(L-Threonyl)-1-Oxo-2,5,8-Triazaspiro[3.5]Nonane Carboxylate] |  | < 1 nM |  |  | < 100% | < 100% |  |  | < 1 nM | Emax ([2]; read-out: NMDAR2B A: % maximal [3H]MK-801 binding relative to 1 mM glycine): 0%
O=C1NCC12CNCCN2Cc1ccccc1 (single isomer, unassigned) [ED-1, 5-Benzyl-2,5,8-Triazaspiro[3.5]Nonan-1-One] |  |  | − (−=0) |  | < 100% | 0% |  |  | < 1 nM | AUC(0-t) [6]: 1020 ng·h/mL; clearance [6]: 32.1 mL/min/kg; half-life [6]: 47.4 min; C0 ([6]; read-out: C0): 1180 ng/mL; Vd ([6]; read-out: Vss): 1.88 L/kg; Cmax ([7]; Sprague Dawley, plasma, po, Cmax, normal saline (compounds marked * in 1% NMP and 99% normal saline)): 2800 ng/mL; % F [7]: 138%; AUClast [7, 8]: 7053.49 ng·h/mL; Tmax [7, 8]: 40.2 min
